The source of these data is patent US20250123269A1 (priority 2023, published 2025).

Experiment [1] relates to SARS-COV-2 B.1.617.2 delta. The experiment is classed as cell-based.
The test system of experiment [2] is SARS-COV-2 B.1.1.529 omicron. The experiment is classed as cell-based.

Regarding `O=c1nc(NO)ccn1[C@@H]1O[C@H](CO)[C@@H](O)[C@H]1O` [EIDD-1931], in experiment [1], the “dose-dependent inhibition of infection” value is recorded as “dose-dependent inhibition of infection”, the inhibition of infection result was “complete inhibition” and the reduction of infection result is reported as “at least 50%”. In experiment [2], the “dose-dependent inhibition of infection” value is recorded as “dose-dependent inhibition of infection”, the inhibition of infection entry is on record as “complete inhibition” and the reduction of infection result is reported as “at least 50%”.
In the case of `Cc1c(O)cccc1C(=O)N[C@@H](CSc1ccccc1)[C@H](O)CN1C[C@H]2CCCC[C@H]2C[C@H]1C(=O)NC(C)(C)C` [nelfinavir], in experiment [1], the “dose-dependent inhibition of infection” value is on record as “dose-dependent inhibition of infection” and the inhibition of infection entry was “did not completely inhibit infection”. Besides, in experiment [2], the “dose-dependent inhibition of infection” value is given as “dose-dependent inhibition of infection” and the inhibition of infection result is recorded as “did not completely inhibit infection”.
For `CC(C)(C)[C@H](NC(=O)C(F)(F)F)C(=O)N1C[C@H]2[C@@H]([C@H]1C(=O)N[C@H](C#N)C[C@@H]1CCNC1=O)C2(C)C` [nirmatrelvir, Nirmatrelvir], in experiment [1], the “dose-dependent inhibition of infection” value is “dose-dependent inhibition of infection” and the reduction of infection is recorded as 50%. In experiment [2], the “dose-dependent inhibition of infection” value is given as “dose-dependent inhibition of infection” and the inhibition of infection result is reported as “nearly completely inhibited”.
